Laboratory results reported in US4331670A (priority 1979, dated 1982).
≈ marks a conversion by molar mass, not a printed value.

Assays:
Pyricularia orzae = experiment: whole plant or invertebrate; assay type: in vivo, Pyricularia orzae (rice plant, Chukyo Asahi); details: in Oryza sativa, 120 h, read-out: Protective value
Sphaerotheca fuliginea = experiment: whole plant or invertebrate; assay type: in vivo, Sphaerotheca fuliginea (cucumber plant, Suyo); details: Podosphaera fuliginea, in Cucumis sativus, 240 h; read-out: Protective value
Botrytis cinerea = experiment: Test 9: protective value on cucumber inoculated with Botrytis cinerea; assay type: in vivo, Botrytis cinerea (cucumber plant, Suyo); details: 72 h; for pest or weed control at 250 ppm: 10 ml sprayed, lesion length three days after inoculation
Protocol: In each unglazed pot having a diameter of 9 cm, cucumber plant (Suyo) was cultured. At one leaf stage, 10 ml. of each solution of each active ingredient having a concentration of 250 ppm was sprayed by a spray gun. After maintaining the pot in a green-house at 24° to 25° C. for one day, a disc (punched agar disc) obtained by culturing Botrytis cinerea on a potato-glucose-agar medium (PDA medium) was put on the leaf of cucumber to inoculate them. Three days after the inoculation, lengths of lesions were measured and each protective value was calculated as Test 2.
In accordance with the test, except the concentration of the active ingredient was decreased, the comparative tests of Compound No. 7 and Reference compound were carried out.

Plasmopara viticola = experiment: whole plant or invertebrate; assay type: in vivo, Plasmopara viticola (cucumber plant, Suyo); details: in Cucumis sativus, 144 h, read-out: Protective value
Rhizoctonia solani = experiment: whole plant or invertebrate; assay type: in vivo, Rhizoctonia solani (rice plant, Chukyo Asahi); details: in Oryza sativa, 120 h, read-out: Preventive value
Plutella xylostella = experiment: Test 11: mortality of larvae of Plutella xylostella on treated cabbage leaf; assay type: in vivo; details: foliar, 192 h, leaf dipped, emulsifiable concentrate Composition No. 3, eight days, read-out: Percent mortality
From the text: Each emulsifiable concentrate of each active ingredient as Composition No. 3 was dispersed in water at a concentration of 800 ppm. Each leaf of cabbage was dipped into each emulsion for about 10 seconds and taken up and dried in air.
A wet filter paper was put in each Petri dish (diameter of 9 cm), and each treated leaf was put on the filter paper. Larvae of Plutella xylostella at 2nd to 3rd instar were charged and the dish was covered with a cap and kept in a constant temperature chamber with lighting at 28° C. Eight days after the charge, mortality was measured and each percent mortality was calculated.

Phytophthora infestans = assay type: cell-based; details: PDA medium; fungus A: Phytophthora infestans
[1] = system: Collectotrichum lagenarium; experiment: Test 3: protective value on cucumber inoculated with Collectotrichum lagenarium; assay type: in vivo, Collectotrichum lagenarium (cucumber plant, Suyo); details: 500 ppm, 10 ml sprayed; lesions six days after inoculation
Protocol: In each unglazed pot having a diameter of 9 cm, cucumber plant (Suyo) was cultured. At one leaf stage, 10 ml. of each solution of each active ingredient having a concentration of 500 ppm was sprayed by a spray gun. After maintaining the pot in a green-house at 24° to 25° C. for one day, each spore suspension of Collectotrichum lagenarium was sprayed. Six days after the inoculation, number of lesions on the first leaf of seedling was observed. The protective value was calculated as Test 1.

Diaporthe citri = experiment: Test 5: minimum growth inhibition concentration on PDA medium; assay type: cell-based; details: fungus B: Diaporthe citri
Protocol: (§1) A mixture of 9 ml. of a potato-glucose-agar medium (PDA medium) and 1 ml. of each active ingredient was poured into each Petri-dish to be solidified. […] The following fungi were used.

Alternaria solani = experiment: as above; assay type: cell-based; details: fungus C: Alternaria solani
Protocol: as §1

Venturia inaequalie = experiment: as above; assay type: cell-based; details: fungus D: Venturia inaequalie
Protocol: as §1

[2] = system: Penicillium funiculosum IFO 6354; experiment: Test 8: MIC by agar dilution process; assay type: cell-based; details: Talaromyces funiculosus, IFO6354, 168 h; Sabouraud's agar medium; 1 week
Protocol: (§2) Each minimum growth inhibition concentration (MIC) of Compound No. 16 to various microorganisms was measured by the agar dilution process. In the cases of bacteria, the results were observed 24 hours after the inoculation and in the cases of fungi, the results were observed 1 week after the inoculation.

[3] = system: Aureobasidium pullulans IFO 6353; experiment: Test 8: MIC by agar dilution process; assay type: cell-based; details: IFO6353, 168 h, Sabouraud's agar medium, 1 week
Protocol: as §2

[4] = system: Serratia marcescens IFO 12648; experiment: Test 8: MIC by agar dilution process; assay type: cell-based; details: IFO12648, Bouillon agar medium, 24 hours
Protocol: as §2

[5] = system: Chaetomium globosum IFO 6347; experiment: Test 8: MIC by agar dilution process; assay type: cell-based; details: IFO6347, 168 h, Sabouraud's agar medium, 1 week
Protocol: as §2

Escherichia coli = experiment: Test 8: MIC by agar dilution process; assay type: cell-based; details: Bouillon agar medium, 24 hours
Protocol: as §2

Trametes sanguinea = experiment: Test 8: MIC by agar dilution process; assay type: cell-based; details: 168 h, Sabouraud's agar medium, 1 week
Protocol: as §2

[6] = system: Proteus morganii IFO 3848; experiment: Test 8: MIC by agar dilution process; assay type: cell-based; details: Morganella morganii, IFO3848; Bouillon agar medium; 24 hours
Protocol: as §2

[7] = system: Aspergillum niger IFO 6341; experiment: Test 8: MIC by agar dilution process; assay type: cell-based; details: 168 h; Sabouraud's agar medium; 1 week
Protocol: as §2

[8] = system: Klebsiella pneumoniae IFO 3512; experiment: Test 8: MIC by agar dilution process; assay type: cell-based; details: IFO3512, Bouillon agar medium, 24 hours
Protocol: as §2

[9] = system: Myrothecium verrucaria IFO 6133; experiment: Test 8: MIC by agar dilution process; assay type: cell-based; details: Albifimbria verrucaria, IFO6133, 168 h; Sabouraud's agar medium; 1 week
Protocol: as §2

[10] = system: Salmonella typhimurium IFO 12529; experiment: Test 8: MIC by agar dilution process; assay type: cell-based; details: Salmonella enterica; Bouillon agar medium; 24 hours
Protocol: as §2

[11] = system: Gibberella fujikuroi IFO 6349; experiment: Test 8: MIC by agar dilution process; assay type: cell-based; details: Fusarium fujikuroi, IFO6349, 168 h; Sabouraud's agar medium; 1 week
Protocol: as §2

Pseudomonas aeruginosa = experiment: Test 8: MIC by agar dilution process; assay type: cell-based; details: Bouillon agar medium, 24 hours
Protocol: as §2

[12] = system: Staphylococcus aureus 209P; experiment: Test 8: MIC by agar dilution process; assay type: cell-based; details: Bouillon agar medium, 24 hours
Protocol: as §2

Bacillus subtilis PC1219 = experiment: Test 8: MIC by agar dilution process; assay type: cell-based; details: Bouillon agar medium, 24 hours
Protocol: as §2

[13] = system: Aspergillum flavus IFO 6343; experiment: Test 8: MIC by agar dilution process; assay type: cell-based; details: 168 h; Sabouraud's agar medium; 1 week
Protocol: as §2

[14] = system: Aspergillum fumigatus IFO 4057; experiment: Test 8: MIC by agar dilution process; assay type: cell-based; details: 168 h; Sabouraud's agar medium; 1 week
Protocol: as §2

[15] = system: Gliocladium virens IFO 9166; experiment: Test 8: MIC by agar dilution process; assay type: cell-based; details: Trichoderma virens, IFO9166, 168 h; Sabouraud's agar medium; 1 week
Protocol: as §2

Penicillium italicum = experiment: Test 8: MIC by agar dilution process; assay type: cell-based; details: 168 h, Sabouraud's agar medium, 1 week
Protocol: as §2

[16] = system: Penicillium chrysogeum IFO 4626; experiment: Test 8: MIC by agar dilution process; assay type: cell-based; details: IFO4626, 168 h, Sabouraud's agar medium, 1 week
Protocol: as §2

[17] = system: Penicillium citrium IFO 6352; experiment: Test 8: MIC by agar dilution process; assay type: cell-based; details: IFO6352, 168 h, Sabouraud's agar medium, 1 week
Protocol: as §2

Callosobruchus chinensis = experiment: Test 7: mortality of adults of Callosobruchus chinensis on film in Petri-dish; assay type: in vivo; details: 400 μg per Petri-dish of 9 cm, 25° C., 24 hours, read-out: Percent mortality
Protocol: Each active ingredient was dissolved in acetone to prepare each solution having the specific concentration. 1 Ml. of the solution (400 μg. of each active ingredient) was uniformly adhered on the inner bottom surface of Petri-dish having a diameter of 9 cm to form a film. In the dish, 15 of adults of Callosobruchus chinensis were charged and the dish was covered with a cap and kept in a constant temperature chamber at 25° C. for 24 hours. Each percent mortality was calculated as that of Test 6.

Tetranychus telarius (L) = experiment: Test 6: mortality of larvae and adults of Tetranychus telarius on kidney bean leaf; assay type: in vivo; details: foliar, 72 h, leaf dipped, wettable powder of Composition No. 5, three days after treatment, read-out: Percent mortality
Protocol: Young seedling of kidney bean treated to cut off leaves except one primordial leaf was transplanted in a cup and about 30 of larvae and adults of Tetranychus telarius (L) were inoculated on the primordial leaf. This was dipped for 10 seconds in each solution obtained by diluting each wettable powder of Composition No. 5 containing each active ingredient with water at the concentration of 800 ppm and was dried in air and was kept in a constant temperature chamber with lighting at 28° C. Three days after the treatment, mortality was measured and each percent mortality was calculated as follows. [formula]

O=[N+]([O-])c1cc(C(F)(F)F)c(Cl)c([N+](=O)[O-])c1Nc1ncc(C(F)(F)F)cc1Cl [Compound No. 7, N-(3-chloro-5-trifluoromethyl-2-pyridyl)-2,6-dinitro-3-chloro-4-trifluoromethylaniline] gave a pest or weed control at 12.5 ppm (Pyricularia orzae) of 98%, a pest or weed control at 25 ppm (Pyricularia orzae) of 100% and a pest or weed control at 100 ppm (Pyricularia orzae) of 100%. The pest or weed control at 500 ppm (Sphaerotheca fuliginea) was 100%, the pest or weed control at 62.5 ppm (Botrytis cinerea; 62.5 ppm) was 100% and the pest or weed control at 250 ppm (Botrytis cinerea) was 100%. For the same compound, the pest or weed control at 500 ppm (Plasmopara viticola) was 100%, the pest or weed control at 100 ppm (Rhizoctonia solani) was 100% and the mortality at 800 ppm (Plutella xylostella) was 100%. The “minimum growth inhibition concentration” value (Phytophthora infestans) was 100, the Protective value [1] was 100% and the “minimum growth inhibition concentration” value (Diaporthe citri) was under 1. The “minimum growth inhibition concentration” value (Alternaria solani) was under 1 and the “minimum growth inhibition concentration” value (Venturia inaequalie) was under 1.
O=[N+]([O-])c1cc(C(F)(F)F)c(Cl)c([N+](=O)[O-])c1Nc1c(Cl)cncc1Cl [Compound No. 16] was tested, and the pest or weed control at 100 ppm (Pyricularia orzae) was 100%, the pest or weed control at 500 ppm (Sphaerotheca fuliginea) was 100% and the pest or weed control at 250 ppm (Botrytis cinerea) was 100%. The pest or weed control at 100 ppm (Rhizoctonia solani) was 100%, the MIC [2] was 6.25 µg/mL (≈ 14.5 µM) and the MIC [3] was 6.25 µg/mL (≈ 14.5 µM). For the same compound, the MIC [4] was 6.25 µg/mL (≈ 14.5 µM), the MIC [5] was 3.12 µg/mL (≈ 7.23 µM) and the MIC (Escherichia coli) was 12.5 µg/mL (≈ 29 µM). For the same compound, the MIC (Trametes sanguinea) was 6.25 µg/mL (≈ 14.5 µM), the MIC [6] was 6.25 µg/mL (≈ 14.5 µM) and the MIC [7] was 3.12 µg/mL (≈ 7.23 µM). It also gave an MIC [8] of 12.5 µg/mL (≈ 29 µM), an MIC [9] of 6.25 µg/mL (≈ 14.5 µM) and an MIC [10] of 6.25 µg/mL (≈ 14.5 µM). It also gave an MIC [11] of 12.5 µg/mL (≈ 29 µM), an MIC (Pseudomonas aeruginosa) of 12.5 µg/mL (≈ 29 µM) and an MIC [12] of under 0.2 µg/mL. The MIC (Bacillus subtilis PC1219) was under 0.2 µg/mL, the MIC [13] was 6.25 µg/mL (≈ 14.5 µM) and the MIC [14] was 6.25 µg/mL (≈ 14.5 µM). The MIC [15] was 12.5 µg/mL (≈ 29 µM), the MIC (Penicillium italicum) was 3.12 µg/mL (≈ 7.23 µM) and the MIC [16] was 3.12 µg/mL (≈ 7.23 µM). It also gave an MIC [17] of 6.25 µg/mL (≈ 14.5 µM).
Compound O=[N+]([O-])c1cc(C(F)(F)F)cc([N+](=O)[O-])c1Nc1ncc(Cl)cc1Cl [compound 3, N-(3,5-dichloro-2-pyridyl)-2,6-dinitro-4-trifluoromethylaniline] has a pest or weed control at 100 ppm (Pyricularia orzae) of 100%, a pest or weed control at 500 ppm (Sphaerotheca fuliginea) of 100% and a mortality at 400 µg/dish (Callosobruchus chinensis) of 100%. For the same compound, the pest or weed control at 100 ppm (Rhizoctonia solani) was 100%, the mortality at 800 ppm (Tetranychus telarius (L)) was 100% and the “minimum growth inhibition concentration” value (Phytophthora infestans) was 100. The Protective value [1] was 100%, the “minimum growth inhibition concentration” value (Diaporthe citri) was 100 and the “minimum growth inhibition concentration” value (Alternaria solani) was 10. For the same compound, the “minimum growth inhibition concentration” value (Venturia inaequalie) was under 1.
O=[N+]([O-])c1cc(C(F)(F)F)c(Cl)c([N+](=O)[O-])c1Nc1ncc(Cl)cc1Cl [compound 4, N-(3,5-dichloro-2-pyridyl)-2,6-dinitro-3-chloro-4-trifluoromethylaniline] was tested, and the pest or weed control at 100 ppm (Pyricularia orzae) was 100%, the pest or weed control at 500 ppm (Plasmopara viticola) was 100% and the pest or weed control at 100 ppm (Rhizoctonia solani) was 93%. For the same compound, the “minimum growth inhibition concentration” value (Phytophthora infestans) was over 100, the Protective value [1] was 100% and the “minimum growth inhibition concentration” value (Diaporthe citri) was 100. For the same compound, the “minimum growth inhibition concentration” value (Alternaria solani) was 100 and the “minimum growth inhibition concentration” value (Venturia inaequalie) was under 1.
Compound Cc1nc(Nc2c([N+](=O)[O-])cc(C(F)(F)F)c(Cl)c2[N+](=O)[O-])c(Cl)cc1Cl [compound 8, N-(3,5-dichloro-6-methyl-2-pyridyl)2,6-dinitro-3-chloro-4-trifluoromethylaniline] has a pest or weed control at 100 ppm (Pyricularia orzae) of 100%, a pest or weed control at 100 ppm (Rhizoctonia solani) of 90% and a Protective value [1] of 100%.
